# Read-outs that look alike come from different tables or passages of the source. Marks after values point to notes of the source that are not given here.
# Tests used:
# [1] = system: V12 5725 (Wales) Klebsiella pneumoniae; assay: MIC assay, CAMHB with alginate oligomer, no visible growth; format: cell-based; settings: Table 5, V12 MDR Kleb pneu
# [2] = system: V23 1322 Burkholderia cepacia; assay: as above; format: cell-based
# [3] = system: V9 (Egypt) Acinetobacter baumannii; assay: as above; format: cell-based; settings: Table 5, V9 MDR Acin. baum
# [4] = system: V11 5702 (Wales) E. coli; assay: as above; format: cell-based; settings: Table 5, V11 MDR E.coli
# [5] = system: V22 6056 Acinetobacter; assay: as above; format: cell-based, Acinetobacter lwoffii; settings: Table 5, V22 MDR Acin. lwoff
# [6] = system: PA01 Pseudomonas aeruginosa ATCC 15692; assay: MIC assay, two-fold antibiotic dilutions in CAMHB with alginate oligomer, no visible growth; format: cell-based; settings: PA01 non MDR
# [7] = system: Pseudomonas aeruginosa MDR 301 from Poland (V2); assay: MIC assay, CAMHB with alginate oligomer, no visible growth; format: cell-based; settings: Table 4, V2 MDR (Pol.)
# [8] = system: V10 (Egypt) Acinetobacter lwoffii; assay: as above; format: cell-based; settings: Table 5, V10 MDR Acin. lwoff
# [9] = system: V5 AIM-1 E. coli; assay: as above; format: cell-based; settings: Table 4, V5 MDR E. coli
# Text: (§1) The study described in Example 1 was repeated with the following strains of bacteria and antibiotics as detailed in Tables 4, 5 and 6.
# [10] = system: Pseudomonas aeruginosa MDR R22 from China (V1); assay: as above; format: cell-based; settings: Table 4, V1 MDR (China)
# Text: as §1
# [11] = system: Pseudomonas aeruginosa CFA 24-1, clinical mucoid strain (R80); assay: as above; format: cell-based; settings: Table 4, R80 non MDR (muc.)
# [12] = system: Pseudomonas aeruginosa ATCC 39324, mucoid type strain (R79); assay: as above; format: cell-based; settings: R79 non MDR (muc.)
# [13] = system: Acinetobacter baumannii MDR ACB from Libya (V4); assay: as above; format: cell-based; settings: Table 4, V4 MDR (Libya)
# Text: as §1
# The study described in Example 1 was repeated with the following strains of Acinetobacter baumannii, antibiotics and M-block alginate oligomer in place of OligoG CF-5/20 as detailed in Table 7. The M-block oligomer is 100% M with a DPn of 15 to 18,
# [14] = system: Klebsiella pneumoniae KP05 506 from India (V3); assay: as above; format: cell-based; settings: Klebsiella pneumoniae, Table 4; V3 MDR (India); OligoCF-5/20 +10% G; read-out: MIC
# [15] = Table 5, V23 MDR Burk cep, OligoCF-5/20 +6% G
# [16] = Table 5, V23 MDR Burk cep, OligoCF-5/20 +10% G
# [17] = Acinetobacter baumannii, OligoCF-5/20 0G, read-out: MIC
# [18] = Pseudomonas aeruginosa, OligoCF-5/20 0G, read-out: MIC
# [19] = Pseudomonas aeruginosa, OligoCF-5/20 +6% G, read-out: MIC
# [20] = Pseudomonas aeruginosa, OligoCF-5/20 +10% G, read-out: MIC
# [21] = Pseudomonas aeruginosa, OligoCF-5/20 +2% G, read-out: MIC
compound,measurement,setting,value
Spiramycin,MIC,[1]; OligoCF-5/20 0G,67^† μg/ml
same,MIC,[1]; OligoCF-5/20 +2% G,64 µg/mL
same,MIC,[1]; OligoCF-5/20 +6% G,32^† μg/ml
same,MIC,[1]; OligoCF-5/20 +10% G,16† μg/ml
same,MIC,"[2]; Table 5, V23 MDR Burk cep, OligoCF-5/20 0G",>4096^† μg/ml
same,MIC,"[2]; Table 5, V23 MDR Burk cep, OligoCF-5/20 +2% G",2048^† μg/ml
same,MIC,[2]; [15],2048^† μg/ml
same,MIC,[2]; [16],1024^† μg/ml
same,MIC,[3]; OligoCF-5/20 0G,256^† μg/ml
same,MIC,[3]; OligoCF-5/20 +2% G,64^† μg/ml
same,MIC,[3]; OligoCF-5/20 +6% G,32^† μg/ml
same,MIC,[3]; OligoCF-5/20 +10% G,16^† μg/ml
same,MIC,[4]; OligoCF-5/20 0G,128^† μg/ml
same,MIC,[4]; OligoCF-5/20 +2% G,64^† μg/ml
same,MIC,[4]; OligoCF-5/20 +6% G,32^† μg/ml
same,MIC,[4]; OligoCF-5/20 +10% G,32^† μg/ml
same,MIC,[5]; OligoCF-5/20 0G,<4 µg/mL
same,MIC,[5]; OligoCF-5/20 +2% G,<4 µg/mL
same,MIC,[5]; OligoCF-5/20 +6% G,<4 µg/mL
same,MIC,[5]; OligoCF-5/20 +10% G,<4 µg/mL
same,MIC,"[6]; Table 4, OligoCF-5/20 0G",>1024^† μg/ml
same,MIC,"[6]; Table 4, OligoCF-5/20 +10% G",512^† μg/ml
same,MIC,[7]; OligoCF-5/20 0G,>1024^† μg/ml
same,MIC,[8]; OligoCF-5/20 0G,<4 µg/mL
same,MIC,[8]; OligoCF-5/20 +2% G,<4 µg/mL
same,MIC,[8]; OligoCF-5/20 +6% G,<4 µg/mL
same,MIC,[8]; OligoCF-5/20 +10% G,<4 µg/mL
same,MIC,[9]; OligoCF-5/20 0G,32^† μg/ml
same,MIC,[9]; OligoCF-5/20 +2% G,32 µg/mL
same,MIC,[9]; OligoCF-5/20 +6% G,16^† μg/ml
same,MIC,[9]; OligoCF-5/20 +10% G,8† μg/ml
same,MIC,[10]; OligoCF-5/20 0G,>1024^† μg/ml
same,MIC,[10]; OligoCF-5/20 +10% G,512^† μg/ml
same,MIC,[11]; OligoCF-5/20 0G,>1024^† μg/ml
same,MIC,"[12]; Table 4, OligoCF-5/20 0G",>1024^† μg/ml
same,MIC,"[12]; Table 4, OligoCF-5/20 +10% G",256^† μg/ml
same,MIC,[13]; OligoCF-5/20 0G,512^† μg/ml
same,MIC,[13]; OligoCF-5/20 +2% G,64^† μg/ml
same,MIC,[13]; OligoCF-5/20 +6% G,64^† μg/ml
same,MIC,[13]; OligoCF-5/20 +10% G,32^† μg/ml
CC[C@H]1OC(=O)[C@H](C)[C@@H](O[C@H]2C[C@@](C)(OC)[C@@H](O)[C@H](C)O2)[C@H](C)[C@@H](O[C@@H]2O[C@H](C)C[C@H](N(C)C)[C@H]2O)[C@](C)(OC)C[C@@H](C)C(=O)[C@H](C)[C@@H](O)[C@]1(C)O [Clarithromycin],MIC,"[1]; Klebsiella pneumoniae, OligoCF-5/20 0G, read-out: MIC",512 µg/mL
same,MIC,[1]; OligoCF-5/20 +10% G,512 µg/mL
same,MIC,"[2]; Burkholderia cepacia, Table 5, V23 MDR Burk cep, OligoCF-5/20 0G, read-out: MIC",512 µg/mL
same,MIC,"[2]; Burkholderia cepacia, Table 6, V23, Experiment 2 (18-03-10), OligoCF-5/20 0G, read-out: MIC",128 µg/mL
same,MIC,"[2]; Burkholderia cepacia, Table 6, V23, Experiment 3 (19-03-10), OligoCF-5/20 0G, read-out: MIC",64 µg/mL
same,MIC,[2]; [15],128^† μg/ml
same,MIC,[2]; [16],32^† μg/ml
same,MIC,"[2]; Table 6, V23, Experiment 1 (18-03-10), OligoCF-5/20 +6% G",128^† μg/ml
same,MIC,"[2]; Table 6, V23, Experiment 1 (18-03-10), OligoCF-5/20 +10% G",128^† μg/ml
same,MIC,"[2]; Table 6, V23, Experiment 2 (18-03-10), OligoCF-5/20 +2% G",128 µg/mL
same,MIC,"[2]; Table 6, V23, Experiment 2 (18-03-10), OligoCF-5/20 +6% G",32^† μg/ml
same,MIC,"[2]; Table 6, V23, Experiment 2 (18-03-10), OligoCF-5/20 +10% G",16^† μg/ml
same,MIC,"[2]; Table 6, V23, Experiment 3 (19-03-10), OligoCF-5/20 +2% G",512^‡ μg/ml
same,MIC,"[2]; Table 6, V23, Experiment 3 (19-03-10), OligoCF-5/20 +6% G",512^‡ μg/ml
same,MIC,"[2]; Table 6, V23, Experiment 3 (19-03-10), OligoCF-5/20 +10% G",512‡ μg/ml
same,MIC,[3]; [17],16 µg/mL
same,MIC,[3]; OligoCF-5/20 +2% G,4^† μg/ml
same,MIC,[3]; OligoCF-5/20 +6% G,2^† μg/ml
same,MIC,[3]; OligoCF-5/20 +10% G,1^† μg/ml
same,MIC,"[4]; Escherichia coli, OligoCF-5/20 0G, read-out: MIC",512 µg/mL
same,MIC,[4]; OligoCF-5/20 +2% G,128^† μg/ml
same,MIC,"[6]; Pseudomonas aeruginosa, ATCC15692, Table 4, OligoCF-5/20 +2% G, read-out: MIC",128 µg/mL
same,MIC,"[6]; Pseudomonas aeruginosa, ATCC15692, Table 4, OligoCF-5/20 +6% G, read-out: MIC",64 µg/mL
same,MIC,"[6]; Pseudomonas aeruginosa, ATCC15692, Table 4, OligoCF-5/20 +10% G, read-out: MIC",32 µg/mL
same,MIC,[7]; [18],512 µg/mL
same,MIC,[7]; [19],128 µg/mL
same,MIC,[7]; [20],32 µg/mL
same,MIC,"[8]; Acinetobacter lwoffii, OligoCF-5/20 0G, read-out: MIC",< 0.5 µg/mL
same,MIC,[8]; OligoCF-5/20 +6% G,<0.5 µg/mL
same,MIC,[8]; OligoCF-5/20 +10% G,<0.5 µg/mL
same,MIC,"[9]; Escherichia coli, OligoCF-5/20 0G",4 µg/mL
same,MIC,"[9]; Escherichia coli, OligoCF-5/20 +2% G",4 µg/mL
same,MIC,"[9]; Escherichia coli, OligoCF-5/20 +6% G",≤ 1 µg/mL
same,MIC,"[9]; Escherichia coli, OligoCF-5/20 +10% G",≤ 1 µg/mL
same,MIC,[10]; [21],128 µg/mL
same,MIC,[10]; [19],64 µg/mL
same,MIC,[10]; [20],32 µg/mL
same,MIC,[11]; [18],1020 µg/mL
same,MIC,[11]; [21],512 µg/mL
same,MIC,[11]; [20],64 µg/mL
same,MIC,"[12]; Pseudomonas aeruginosa, ATCC39324, Table 4, OligoCF-5/20 +2% G, read-out: MIC",128 µg/mL
same,MIC,"[12]; Pseudomonas aeruginosa, ATCC39324, Table 4, OligoCF-5/20 +6% G, read-out: MIC",32 µg/mL
same,MIC,"[12]; Pseudomonas aeruginosa, ATCC39324, Table 4, OligoCF-5/20 +10% G, read-out: MIC",4 µg/mL
same,MIC,[14],128 µg/mL
same,MIC,[13]; [17],8 µg/mL
same,MIC,"[13]; Acinetobacter baumannii, OligoCF-5/20 +2% G, read-out: MIC",4 µg/mL
same,MIC,"[13]; Acinetobacter baumannii, OligoCF-5/20 +6% G, read-out: MIC",≤ 1 µg/mL
same,MIC,"[13]; Acinetobacter baumannii, OligoCF-5/20 +10% G, read-out: MIC",≤ 1 µg/mL

# — US9801901B2, “Alginate oligomers for use in overcoming multidrug resistance in bacteria” (priority 2009, dated 2017)
